Where two headings read alike, the source gives them in different places. Non-standard residues stand in square brackets, D forms with d. Residues, ends and D or L forms follow the SMILES beside them. Ala(4-thiazolyl) = N[C@@H](Cc1cscn1)C(=O)O; NMePhe(4-F) = CN[C@@H](Cc1ccc(F)cc1)C(=O)O; Phe(4-Cl) = N[C@@H](Cc1ccc(Cl)cc1)C(=O)O; Phe(4-F) = N[C@@H](Cc1ccc(F)cc1)C(=O)O; NMeF = CN[C@@H](Cc1ccccc1)C(=O)O; dNMeV = CN[C@@H](C(=O)O)C(C)C; Tle = CC(C)(C)[C@H](N)C(=O)O; hSer = N[C@@H](CCO)C(=O)O; NMeA = CN[C@@H](C)C(=O)O; dNMeA = CN[C@H](C)C(=O)O; Nme = COCCNCC(=O)O; Sar = CNCC(=O)O
What was measured:
Format in all cases: binding
Human MDM2 (HDM2) 1-116 [1] = molecular target: T1, Human MDM2 (HDM2) 1-116 (Homo sapiens, UniProt Q00987); experiment: Fluorescence polarization assay, MDM2/p53 (Table 3)
T1 construct: Human MDM2 (HDM2) 1-116
T1 sequence (Q00987 1-116): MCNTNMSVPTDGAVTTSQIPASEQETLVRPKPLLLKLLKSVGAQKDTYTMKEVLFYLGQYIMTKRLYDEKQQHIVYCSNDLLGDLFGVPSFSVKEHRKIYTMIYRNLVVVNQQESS

Human MDM2 (HDM2) 1-116 [2] = molecular target: T1, Human MDM2 (HDM2) 1-116; experiment: Fluorescence polarization assay 2, MDM2 (Table 4)
Experimental: (§1) Compounds dissolved in DMSO were pin transferred (˜100-200 nL) to the 384 well plate containing the MDM2/p53 solution. After incubation for 60 minutes, the fluorescence polarization was read on a Molecular Devices SpectraMax plate reader equipped with a Fluorescein FP cartridge. In addition to probe alone (positive control) and probe/MDM2 (negative control), a titration of linear p53(18-26) was included on every plate as an additional control. IC50 values were fit using either Prism or Collaborative Drug Discovery.

Human MDM4 (HDM4) 1-114 = molecular target: T2, Human MDM4 (HDM4) 1-114 (Homo sapiens, UniProt O15151); experiment: Fluorescence polarization assay 2, MDM4 (Table 4)
T2 construct: Human MDM4 (HDM4) 1-114
T2 sequence (O15151 1-114): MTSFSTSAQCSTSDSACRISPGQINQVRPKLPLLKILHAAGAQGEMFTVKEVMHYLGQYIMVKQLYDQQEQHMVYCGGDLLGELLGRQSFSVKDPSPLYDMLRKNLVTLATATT
Experimental: as §1, with “MDM4/p53” for “MDM2/p53”, “probe/MDM4” for “probe/MDM2”

[3] = Table 4, fluorescence polarization, read-out: MDM2 IC50
[4] = Table 4, fluorescence polarization, read-out: MDM4 IC50

Row | Structure (SMILES) | IC50 (Human MDM2 (HDM2) 1-116 [2]; [3]) [nM] | IC50 (Human MDM4 (HDM4) 1-114; [4]) [nM] | IC50 (Human MDM2 (HDM2) 1-116 [1]) [nM] | IC50 (Human MDM2 (HDM2) 1-116 [2]) [nM] | IC50 (Human MDM4 (HDM4) 1-114) [nM]
1 | COCCN1CC(=O)N(C)[C@@H](C)C(=O)N[C@@H](Cc2ccc(F)cc2)C(=O)N(C)[C@@H](C)C(=O)N[C@@H](Cc2ccc(Cl)cc2)C(=O)N(C)[C@H](C(C)C)C(=O)N2CCC[C@H]2C(=O)N[C@@H](Cc2ccccc2)C(=O)N[C@@H](C(C)(C)C)C(=O)N[C@@H](Cc2ccc(O)cc2)C1=O [Compound 31, [H]Oc1ccc(C[C@@H]2NC(=O)[C@@H](NC(=O)[C@H](Cc3ccccc3)NC(=O)[C@@H]3CCCN3C(=O)[C@@H](C(C)C)N(C)C(=O)[C@H](Cc3ccc(Cl)cc3)NC(=O)[C@H](C)N(C)C(=O)[C@H](Cc3ccc(F)cc3)NC(=O)[C@H](C)N(C)C(=O)CN(CCOC)C2=O)C(C)(C)C)cc1] (cyclo(F[Tle]Y[Nme][NMeA][Phe(4-F)][NMeA][Phe(4-Cl)][dNMeV]P)) | – | – | ≥ 5000 | – | –
2 | COCC[C@@H]1NC(=O)[C@H]2CCCN2C(=O)[C@H](Cc2ccccc2)N(C)C(=O)[C@H](Cc2ccc(Cl)cc2)NC(=O)[C@H](C(C)(C)C)NC(=O)[C@H](Cc2ccc(F)cc2)NC(=O)CN(CCOC)C(=O)[C@@H](C)N(C)C(=O)[C@H](Cc2ccc(O)cc2)NC(=O)[C@H](C)N(C)C1=O [Compound 32, [H]Oc1ccc(C[C@@H]2NC(=O)[C@H](C)N(C)C(=O)[C@H](CCOC)NC(=O)[C@H]3CCCN3C(=O)[C@H](Cc3ccccc3)N(C)C(=O)[C@H](Cc3ccc(Cl)cc3)NC(=O)[C@@H](NC(=O)[C@H](Cc3ccc(F)cc3)NC(=O)CN(CCOC)C(=O)[C@@H](C)N(C)C2=O)C(C)(C)C)cc1] (cyclo([NMeA]Y[dNMeA][Nme][Phe(4-F)][Tle][Phe(4-Cl)][NMeF][dP][hSer](Me))) | < 25 | > 150 | – | – | –
3 | COCC[C@@H]1NC(=O)[C@H]2CCCN2C(=O)[C@H](Cc2ccccc2)N(C)C(=O)[C@H](Cc2ccc(Cl)cc2)NC(=O)CN(C)C(=O)[C@H](Cc2ccc(F)cc2)NC(=O)[C@H](C)N(C)C(=O)[C@@H](C)N(C)C(=O)[C@H](Cc2cscn2)NC(=O)[C@H](C)N(C)C1=O [Compound 33, COCC[C@@H]1NC(=O)[C@H]2CCCN2C(=O)[C@H](CC2=CC=CC=C2)N(C)C(=O)[C@H](CC2=CC=C(Cl)C=C2)NC(=O)CN(C)C(=O)[C@H](CC2=CC=C(F)C=C2)NC(=O)[C@H](C)N(C)C(=O)[C@@H](C)N(C)C(=O)[C@H](CC2=CSC=N2)NC(=O)[C@H](C)N(C)C1=O] (cyclo([Ala(4-thiazolyl)][dNMeA][NMeA][Phe(4-F)][Sar][Phe(4-Cl)][NMeF][dP][hSer](Me)[NMeA])) | – | – | – | < 25 | 50 to 100
4 | COCC[C@@H]1NC(=O)[C@H]2CCCN2C(=O)[C@H](Cc2ccccc2)N(C)C(=O)[C@H](Cc2ccc(Cl)cc2)NC(=O)[C@H](C)N(C)C(=O)[C@H](Cc2ccc(F)cc2)NC(=O)[C@H](C)N(C)C(=O)[C@@H](C)N(C)C(=O)[C@H](Cc2cscn2)NC(=O)[C@H](C)N(C)C1=O [Compound 34, COCC[C@@H]1NC(=O)[C@H]2CCCN2C(=O)[C@H](CC2=CC=CC=C2)N(C)C(=O)[C@H](CC2=CC=C(Cl)C=C2)NC(=O)[C@H](C)N(C)C(=O)[C@H](CC2=CC=C(F)C=C2)NC(=O)[C@H](C)N(C)C(=O)[C@@H](C)N(C)C(=O)C@H](CC2=CSC=N2)NC(=O)[C@H](C)N(C)C1=O] (cyclo([Ala(4-thiazolyl)][dNMeA][NMeA][Phe(4-F)][NMeA][Phe(4-Cl)][NMeF][dP][hSer](Me)[NMeA])) | 25 to 50 | > 150 | – | – | –

Continued, in another order:

Row | IC50 (Human MDM2 (HDM2) 1-116 [2]; [3]) [nM] | IC50 (Human MDM4 (HDM4) 1-114; [4]) [nM] | Structure (SMILES) | IC50 (Human MDM2 (HDM2) 1-116 [1]) [nM] | IC50 (Human MDM2 (HDM2) 1-116 [2]) [nM] | IC50 (Human MDM4 (HDM4) 1-114) [nM]
5 | < 25 | 50 to 100 | COCC[C@@H]1NC(=O)[C@H]2CCCN2C(=O)[C@H](Cc2ccccc2)N(C)C(=O)[C@H](Cc2ccc(Cl)cc2)NC(=O)[C@H](C(C)(C)C)NC(=O)[C@H](Cc2ccc(F)cc2)NC(=O)[C@H](C)N(C)C(=O)[C@@H](C)N(C)C(=O)[C@H](Cc2cscn2)NC(=O)[C@H](C)N(C)C1=O [Compound 36, COCC[C@@H]1NC(=O)[C@H]2CCCN2C(=O)[C@H](Cc2ccccc2)N(C)C(=O)[C@H](Cc2ccc(Cl)cc2)NC(=O)[C@@H](NC(=O)[C@H](Cc2ccc(F)cc2)NC(=O)[C@H](C)N(C)C(=O)[C@@H](C)N(C)C(=O)[C@H](CC2=CSC=N2)NC(=O)[C@H](C)N(C)C1=O)C(C)(C)C] (cyclo([Ala(4-thiazolyl)][dNMeA][NMeA][Phe(4-F)][Tle][Phe(4-Cl)][NMeF][dP][hSer](Me)[NMeA])) | – | – | –
6 | 25 to 50 | 50 to 100 | COCC[C@@H]1NC(=O)[C@H]2CCCN2C(=O)[C@H](Cc2ccc(F)cc2)N(C)C(=O)[C@H](Cc2ccc(Cl)cc2)NC(=O)[C@H](C(C)(C)C)NC(=O)[C@H](Cc2ccc(F)cc2)NC(=O)CN(CCOC)C(=O)[C@@H](C)N(C)C(=O)[C@H](Cc2cscn2)NC(=O)[C@H](C)N(C)C1=O [Compound 37, COCC[C@@H]1NC(=O)[C@H]2CCCN2C(=O)[C@H](Cc2ccc(F)cc2)N(C)C(=O)[C@H](CC2=CC=C(Cl)C=C2)NC(=O)[C@@H](NC(=O)[C@H](Cc2ccc(F)cc2)NC(=O)CN(CCOC)C(=O)[C@@H](C)N(C)C(=O)[C@H](CC2=CSC=N2)NC(=O)[C@H](C)N(C)C1=O)C(C)(C)C] (cyclo([Ala(4-thiazolyl)][dNMeA][Nme][Phe(4-F)][Tle][Phe(4-Cl)][NMePhe(4-F)][dP][hSer](Me)[NMeA])) | – | – | –
7 | 25 to 50 | 50 to 100 | COCC[C@@H]1NC(=O)[C@H]2CCCN2C(=O)[C@H](Cc2ccc(F)cc2)N(C)C(=O)[C@H](Cc2ccc(Cl)cc2)NC(=O)[C@H](C(C)(C)C)NC(=O)[C@H](Cc2ccc(F)cc2)NC(=O)[C@H](C)N(C)C(=O)[C@@H](C)N(C)C(=O)[C@H](Cc2cscn2)NC(=O)[C@H](C)N(C)C1=O [Compound 38, COCC[C@@H]1NC(=O)[C@H]2CCCN2C(=O)[C@H](Cc2ccc(F)cc2)N(C)C(=O)[C@H](CC2=CC=C(Cl)C=C2)NC(=O)[C@@H](NC(=O)[C@H](Cc2ccc(F)cc2)NC(=O)[C@H](C)N(C)C(=O)[C@@H](C)N(C)C(=O)[C@H](CC2=CSC=N2)NC(=O)[C@H](C)N(C)C1=O)C(C)(C)C] (cyclo([Ala(4-thiazolyl)][dNMeA][NMeA][Phe(4-F)][Tle][Phe(4-Cl)][NMePhe(4-F)][dP][hSer](Me)[NMeA])) | – | – | –
8 | 25 to 50 | > 150 | COCC[C@@H]1NC(=O)[C@H]2CCCN2C(=O)[C@H](Cc2ccccc2)N(C)C(=O)[C@H](Cc2ccc(Cl)cc2)NC(=O)[C@H](C)N(C)C(=O)[C@H](Cc2ccc(F)cc2)NC(=O)CN(CCOC)C(=O)[C@@H](C)N(C)C(=O)[C@H](Cc2cscn2)NC(=O)[C@H](C)N(C)C1=O [Compound 40, COCC[C@@H]1NC(=O)[C@H]2CCCN2C(=O)[C@H](CC2=CC=CC=C2)N(C)C(=O)[C@H](CC2=CC=C(Cl)C=C2)NC(=O)[C@H](C)N(C)C(=O)[C@H](CC2=CC=C(F)C=C2)NC(=O)CN(CCOC)C(=O)[C@@H](C)N(C)C(=O)[C@H](CC2=CSC=N2)NC(=O)[C@H](C)N(C)C1=O] (cyclo([Ala(4-thiazolyl)][dNMeA][Nme][Phe(4-F)][NMeA][Phe(4-Cl)][NMeF][dP][hSer](Me)[NMeA])) | – | – | –
9 | < 25 | < 50 | COCC[C@@H]1NC(=O)[C@H]2CCCN2C(=O)[C@H](Cc2ccccc2)N(C)C(=O)[C@H](Cc2ccc(Cl)cc2)NC(=O)[C@H](C(C)C)NC(=O)[C@H](Cc2ccc(F)cc2)NC(=O)CN(CCOC)C(=O)[C@@H](C)N(C)C(=O)[C@H](Cc2cscn2)NC(=O)[C@H](C)N(C)C1=O [Compound 41, COCC[C@@H]1NC(=O)[C@H]2CCCN2C(=O)[C@H](CC2=CC=CC=C2)N(C)C(=O)[C@H](CC2=CC=C(Cl)C=C2)NC(=O)[C@@H](NC(=O)[C@H](CC2=CC=C(F)C=C2)NC(=O)CN(CCOC)C(=O)[C@@H](C)N(C)C(=O)[C@H](CC2=CSC=N2)NC(=O)[C@H](C)N(C)C1=O)C(C)C] (cyclo([Ala(4-thiazolyl)][dNMeA][Nme][Phe(4-F)]V[Phe(4-Cl)][NMeF][dP][hSer](Me)[NMeA])) | – | – | –

— patent US20220411471A1, “CELL-PERMEABLE CYCLIC PEPTIDES AND USES THEREOF” (Unnatural Products Inc., priority 2019, published 2022)
